Experimental data: publication PMC11912484 (Journal of Medicinal Chemistry, 2025)
Converted amounts (≈) assume the structure as drawn. “Also recorded” adds a separate entry of the source. Like-named read-outs stand apart in the source and are kept apart here.

Legend:
[1] = tested on: mycobacterial efflux pumps; type: cell-based, M. bovis BCG; details: MIC99 with reserpine 32 μg/mL or verapamil 125 μg/mL (1/2 MIC)
M. bovis BCG [2] = test: microbe, parasite or virus in culture; type: cell-based; details: for MIC99: Mycobacterium tuberculosis variant bovis BCG, BCG; for antimycobacterial effect (in words): M. bovis BCG, REMA
MbtI [3] = target: T1, MbtI (Mycobacterium tuberculosis, UniProt P9WFX1); test: MbtI fluorimetric enzyme inhibition assay; type: biochemical; details: for remaining activity at 100 µM / % RA (percentage of residual enzymatic activity): 100 μM test compound, 50 μM chorismic acid; for remaining activity at 100 µM: read-out: % RA (percentage of residual enzymatic activity); for IC50: recombinant MbtI
T1 construct: made in house
Protocol: MbtI from Mtb was produced in recombinant form, and enzyme activity was determined using a fluorimetric assay, as previously reported.[38] For the inhibition studies, the activity was determined in the presence of 100 μM of the test compound and 50 μM of chorismic acid. For compounds that inhibited more than 80% of the initial activity, IC50 values were calculated using eq 1 and GraphPad Prism 8.0 software [drawing 1] 1 where A[I] is the activity at inhibitor concentration [I] and A[0] is the activity in the absence of the inhibitor.

MbtI [4] = target: T1, MbtI; details: compound II; cited from earlier work
M. bovis BCG [5] = details: cited from earlier work
Polymersome size by DLS = type: physicochemical; details: three independent batches
Protocol: The purified solutions were then analyzed by Transmission Electron Microscopy (TEM) on a Jeol JEM 1010 100 kV microscope, equipped with a Megaview 1kx1k CCD (Jeol Ltd., Tokyo, Japan). Copper grids were glow-discharged, and the sample was adsorbed onto the grid. The sample was stained with 1 wt % phosphotungstic acid (PTA) adjusted to pH 7.4 with NaOH. All the TEM analyses were performed with dried samples. The nanoparticle size distribution was characterized by DLS analyses (DLS PN3704 Zetasizer, Malvern Panalytical) using a copolymer concentration of 0.20 mg/mL. For each analysis, 3 measurements were carried out, based on 11 runs. Samples were analyzed at 25 °C with a scattering angle of 173° and a 633 nm HeNe laser, based on a material refractive index (RI) of 1.59, a dispersant refractive index of 1.330, and a viscosity of 0.89. Drug encapsulation was measured by RP-HPLC (Dionex UltiMate 3000, ThermoFisher Scientific). A gradient of water + TFA 0.05% (A) and MeOH + TFA 0.05% (B) from 0 min (30% B) to 30 min (100% B) was used to run the samples through a Jupiter 5 μm C18 300 Å, 150 × 4.6 mm column (Phenomenex, Torrance, CA). The peak area was integrated by using Chromeleon version 6.8 (ThermoFisher Scientific).

[6] = tested on: mouse alveolar-like macrophages (MPI-2 cell line); test: MTT viability assay on mAMs; type: cell-based; details: 24 h exposure, 200, 100, 50 and 25 μM
Protocol: Cell viability was evaluated on human monocytes (THP-1 cell line), human lung fibroblasts (HLF cell line), and mouse alveolar-like macrophages (MPI-2 cell line) using the thiazolyl blue tetrazolium bromide method (MTT; chemicals acquired from Sigma-Aldrich, Merck KGaA).

M. bovis BCG [7] = type: cell-based; details: 1 × MIC and 10 × MIC, low-iron chelated Sauton's medium
[8] = tested on: Mtb-infected murine alveolar-like macrophages (mAMs); type: cell-based, Mycobacterium tuberculosis
siderophore production = type: cell-based; details: M. bovis BCG grown with different concentrations of compound
Mtb H37Rv = tested on: Mtb H37Rv; design: method as in PMID 32530281; details: compound I; cited from earlier work
human cell lines = tested on: human cell lines; design: method as in PMID 30889995, PMID 36015139; details: several human cell lines; cited from earlier work

T1 sequence (P9WFX1 whole entry): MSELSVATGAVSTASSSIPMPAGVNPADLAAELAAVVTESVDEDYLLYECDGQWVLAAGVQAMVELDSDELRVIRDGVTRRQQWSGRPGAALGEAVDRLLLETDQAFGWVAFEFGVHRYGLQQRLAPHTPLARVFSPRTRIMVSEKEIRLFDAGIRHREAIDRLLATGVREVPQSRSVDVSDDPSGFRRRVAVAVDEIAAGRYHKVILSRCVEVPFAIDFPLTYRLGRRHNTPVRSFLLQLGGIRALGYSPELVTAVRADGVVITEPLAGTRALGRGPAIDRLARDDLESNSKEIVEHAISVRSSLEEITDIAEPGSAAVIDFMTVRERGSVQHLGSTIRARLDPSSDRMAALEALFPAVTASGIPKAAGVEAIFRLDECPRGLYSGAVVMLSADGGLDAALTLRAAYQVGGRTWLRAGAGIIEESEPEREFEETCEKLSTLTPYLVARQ

With `CCCCCCOc1cc(C#N)cc(-c2ccc(C(=O)O)o2)c1` [Compound 1k, 5-(3-Cyano-5-(hexyloxy)phenyl)furan-2-carboxylic Acid] the “substrate of mycobacterial efflux pumps” value [1] was “not substrates of efflux pumps”, the MIC99 (M. bovis BCG [2]) was 63 µM (≈ 19.7 µg/mL) and the remaining activity at 100 µM (MbtI [3]) was 6 ± 6.1%. The IC50 (MbtI [3]) was 9.9 ± 1.3 µM.
In the case of `CCCCCOc1cc(C#N)cc(-c2ccc(C(=O)O)o2)c1` [Compound 1i, 5-(3-Cyano-5-(pentyloxy)phenyl)furan-2-carboxylic Acid], the MIC99 (M. bovis BCG [2]) is reported as 125 µM (≈ 37.4 µg/mL), the remaining activity at 100 µM (MbtI [3]) is reported as 0.4 ± 0.2% and the IC50 (MbtI [3]) is reported as 6.8 ± 0.1 µM.
Compound `CCCOc1cc(C#N)cc(-c2ccc(C(=O)O)o2)c1` [Compound 1c, 5-(3-Cyano-5-propoxyphenyl)furan-2-carboxylic Acid] has an MIC99 (M. bovis BCG [2]) of 250 µM (≈ 67.8 µg/mL), a remaining activity at 100 µM (MbtI [3]) of 2.5 ± 0.4% and an IC50 (MbtI [3]) of 18.5 ± 0.9 µM.
In the case of `CCCCOc1cc(C#N)cc(-c2ccc(C(=O)O)o2)c1` [Compound 1d, 5-(3-Butoxy-5-cyanophenyl)furan-2-carboxylic Acid], the “substrate of mycobacterial efflux pumps” value [1] is reported as “not substrates of efflux pumps”, the MIC99 (M. bovis BCG [2]) is reported as 63 µM (≈ 18 µg/mL) and the remaining activity at 100 µM (MbtI [3]) is reported as less than 1%. For the same compound, the IC50 (MbtI [3]) was 0.9 ± 0.2 µM.
In the case of `N#Cc1cc(OCCOc2ccccc2)cc(-c2ccc(C(=O)O)o2)c1` [II], the IC50 (MbtI [4]) is given as 12.1 µM and the MIC99 (M. bovis BCG [5]; compound II) is given as 63 µM (≈ 22 µg/mL).
In the case of `CCCOC(=O)c1ccc(-c2cc(C#N)cc(OCC(C)C)c2)o1` [Compound 2eb, Propyl 5-(3-Cyano-5-isobutoxyphenyl)furan-2-carboxylate], the “average size (hydrodynamic diameter) of drug-containing POs” value (Polymersome size by DLS) is reported as 45.68 ± 1.86 nm, the “mAM viability / cytotoxic effect” value [6] is reported as “increase in mAM mortality at the two highest tested concentrations (200 and 100 μM)” and the MIC99 (M. bovis BCG [2]) is reported as 125 µM (≈ 40.9 µg/mL). The remaining activity at 100 µM (MbtI [3]) was 94 ± 9.3%.
In the case of `CC(C)COc1cc(C#N)cc(-c2ccc(C(=O)O)o2)c1` [Compound 1e, 5-(3-Cyano-5-isobutoxyphenyl)furan-2-carboxylic Acid], the “substrate of mycobacterial efflux pumps” value [1] is reported as “not substrates of efflux pumps”, the time-killing behaviour (M. bovis BCG [7]) is reported as “bacteriostatic activity” and the “reduction in Mtb intracellular burden by the free compound” value [8] is reported as “did not exhibit significant activity on infected macrophages; also recorded: detected only at the highest tested concentration (200 μM)”. For the same compound, the MIC99 (M. bovis BCG [2]) was 32 µM (≈ 9.13 µg/mL), the “siderophore production (CAS assay)” value (siderophore production) was “acted by impairing the production of siderophores” and the remaining activity at 100 µM (MbtI [3]) was 7 ± 3.1%. The IC50 (MbtI [3]) was 11.2 ± 1.5 µM.
In the case of `N#Cc1cc(OCC2CC2)cc(-c2ccc(C(=O)O)o2)c1` [Compound 1f, 5-(3-Cyano-5-(cyclopropylmethoxy)phenyl)furan-2-carboxylic Acid], the MIC99 (M. bovis BCG [2]) is reported as 125 µM (≈ 35.4 µg/mL), the “% RA (percentage of residual enzymatic activity)” value (MbtI [3]) is reported as 20.6 ± 2.4% and the remaining activity at 100 µM (MbtI [3]) is reported as 20%.
Work on `CC(C)(C)COc1cc(C#N)cc(-c2ccc(C(=O)O)o2)c1` [Compound 1h, 5-(3-Cyano-5-(neopentyloxy)phenyl)furan-2-carboxylic Acid] yielded an MIC99 (M. bovis BCG [2]) of 125 µM (≈ 37.4 µg/mL), a remaining activity at 100 µM (MbtI [3]) of 6.8 ± 3.1% and an IC50 (MbtI [3]) of 18.6 ± 1.5 µM.
With `CO[C@H]1/C=C/O[C@@]2(C)Oc3c(C)c(O)c4c(O)c(c(/C=N/N5CCN(C)CC5)c(O)c4c3C2=O)NC(=O)/C(C)=C\C=C\[C@H](C)[C@H](O)[C@@H](C)[C@@H](O)[C@@H](C)[C@H](OC(C)=O)[C@@H]1C` [Rifampicin, reference compound] the “time of peak effect on Mtb fluorescence” value ([8]; 1 μg/mL (2x MIC), positive control) was 3 day post-treatment.
Work on `CCOc1cc(C#N)cc(-c2ccc(C(=O)O)o2)c1` [Compound 1a, 5-(3-Cyano-5-ethoxyphenyl)furan-2-carboxylic Acid] yielded an MIC99 (M. bovis BCG [2]) greater than 500 µM, a remaining activity at 100 µM (MbtI [3]) of 4.9 ± 2.3% and an IC50 (MbtI [3]) of 11.8 ± 0.6 µM.
For `N#Cc1cc(OCC2CCC2)cc(-c2ccc(C(=O)O)o2)c1` [Compound 1g, 5-(3-Cyano-5-(cyclobutylmethoxy)phenyl)furan-2-carboxylic Acid], the MIC99 (M. bovis BCG [2]) was 250 µM (≈ 74.3 µg/mL), the “% RA (percentage of residual enzymatic activity)” value (MbtI [3]) was 30.4 ± 6.3% and the remaining activity at 100 µM (MbtI [3]) was 30%.
For `CC=CCOc1cc(C#N)cc(-c2ccc(C(=O)O)o2)c1` [Compound 1m, 5-(3-(But-2-en-1-yloxy)-5-cyanophenyl)furan-2-carboxylic Acid], the MIC99 (M. bovis BCG [2]) was 125 µM (≈ 35.4 µg/mL), the remaining activity at 100 µM (MbtI [3]) was 7.5 ± 0.3% and the IC50 (MbtI [3]) was 3.1 ± 0.7 µM.
With `CCCCCCCCOc1cc(C#N)cc(-c2ccc(C(=O)O)o2)c1` [Compound 1l, 5-(3-Cyano-5-(octyloxy)phenyl)furan-2-carboxylic Acid] the “% RA (percentage of residual enzymatic activity)” value (MbtI [3]) was 40.0 ± 4.1% and the remaining activity at 100 µM (MbtI [3]) was 40%.
With `C/C=C/C=C/C=C/COc1cc(C#N)cc(-c2ccc(C(=O)O)o2)c1` [Compound 1o, 5-(3-Cyano-5-((2E,4E,6E)-octa-2,4,6-trien-1-yloxy)phenyl)furan-2-carboxylic Acid] the “antimycobacterial effect (in words)” value (M. bovis BCG [2]) was “completely abolished the antimycobacterial effect”, the MIC99 (M. bovis BCG [2]) was greater than 500 µM and the remaining activity at 100 µM (MbtI [3]) was 18.4 ± 3.8%. It also gave an IC50 (MbtI [3]) of 9.2 ± 2.4 µM.
In the case of `CC(C)CCOc1cc(C#N)cc(-c2ccc(C(=O)O)o2)c1` [Compound 1j, 5-(3-Cyano-5-(isopentyloxy)phenyl)furan-2-carboxylic Acid], the MIC99 (M. bovis BCG [2]) is reported as 125 µM (≈ 37.4 µg/mL), the remaining activity at 100 µM (MbtI [3]) is reported as 1.6 ± 1.4% and the IC50 (MbtI [3]) is reported as 22 ± 1.8 µM.
For `C/C=C/C=C/COc1cc(C#N)cc(-c2ccc(C(=O)O)o2)c1` [Compound 1n, 5-(3-Cyano-5-((2E,4E)-hexa-2,4-dien-1-yloxy)phenyl)furan-2-carboxylic Acid], the “antimycobacterial effect (in words)” value (M. bovis BCG [2]) was “completely abolished the antimycobacterial effect”, the MIC99 (M. bovis BCG [2]) was greater than 500 µM and the remaining activity at 100 µM (MbtI [3]) was 10 ± 3.6%. It also gave an IC50 (MbtI [3]) of 16.6 ± 2.1 µM.
In the case of `CCOC(=O)c1ccc(-c2cc(C#N)cc(OCC(C)C)c2)o1` [Compound 2ea, Ethyl 5-(3-Cyano-5-isobutoxyphenyl)furan-2-carboxylate], the “average size (hydrodynamic diameter) of drug-containing POs” value (Polymersome size by DLS) is reported as 44.46 ± 9.58 nm, the “mAM viability / cytotoxic effect” value [6] is reported as “increase in mAM mortality at the two highest tested concentrations (200 and 100 μM)” and the MIC99 (M. bovis BCG [2]) is reported as 64 µM (≈ 20.1 µg/mL). For the same compound, the remaining activity at 100 µM (MbtI [3]) was 71.5 ± 7.6%.
`CC(C)Oc1cc(C#N)cc(-c2ccc(C(=O)O)o2)c1` [Compound 1b, 5-(3-Cyano-5-isopropoxyphenyl)furan-2-carboxylic Acid] showed an MIC99 (M. bovis BCG [2]) greater than 500 µM, a remaining activity at 100 µM (MbtI [3]) of 12.1 ± 2.9% and an IC50 (MbtI [3]) of 21.1 ± 0.6 µM.
For `N#Cc1cccc(-c2ccc(C(=O)O)o2)c1` [I], the MIC99 (Mtb H37Rv) is given as 250 µM (≈ 53.3 µg/mL), the MIC99 (M. bovis BCG [5]; compound I, M. bovis BCG) is given as 250 µM (≈ 53.3 µg/mL) and the “safety on human cell lines” value (human cell lines) is given as “safe on several human cell lines”.
